1 compound from patent US20080242590A1, “New Method 706” (ASTRAZENECA AB, priority 2007, published 2008) can be followed below.

What all share (type): biochemical
Experiment [1] relates to amyloid β peptide 1-40 (Aβ40). In words: Degradation of Aβ40 in human plasma (Example 18). Conditions: 10 μM phosphoramidon. As for the experimental part:
Blood from eight individuals (5 females and 3 males) were collected into pre-chilled heparin-plasma tubes at the healthcare centre (AstraZeneca) at two different time points. Plasma was prepared by centrifugation for 20 min at 4° C. at 2500×g within 30 minutes of sampling. Plasma samples were transferred to pre-chilled polypropylene tubes and immediately frozen and stored at −70° C. prior to use. His-Fc-Nep (6 μg/ml) or 5 μg/ml recombinant human Neprilysin (R&D systems) with corresponding vehicles (50 mM Tris-HCl, 150 mM NaCl pH 7.5 or 25 mM Tris-HCl, 0.1 M NaCl pH 8.0) in presence or absence of 10 μM phosphoramidon was incubated with a pool of plasma at 37° C. for 0 and 4 h. A final concentration of 4.7 mM EDTA was added into the tubes before the amount of Aβ40 was analysed using a commercial ELISA kit obtained from Biosource. His-Fc-Nep (6 μg/ml) and commercial human recombinant neprilysin (5 μg/ml) degraded Aβ40 with 33% and 70%, respectively, compared to vehicle after 4 hours incubation at 37° C. The Aβ40 levels were unaffected after addition of 10 μM phosphoramidon (FIG. 4).

Experiment [2] concerns amyloid β peptide 1-40 (Aβ40). The experiment in a line: Ex-vivo degradation of Aβ40 in guinea pig plasma. The note with it: 10 μM phosphoramidon. As for the experimental part:
(§1) Degradation of amyloid β peptide 1-40 (Aβ40) and amyloid β peptide 1-42 (Aβ42) by neprilysin was investigated using heparinized plasma from male Dunkin Hartley guinea pigs, weighing 250-300 g (HBLidkoping ka). Blood was withdrawn from anaesthetized guinea pigs by heart puncture. The blood were collected into prechilled heparin-plasma tubes and centrifuged for 10 min at 4° C. at 3000×g within 20 minutes of sampling. Plasma samples were transferred to pre-chilled polypropylene tubes and immediately frozen on dry ice and stored at −70° C. prior to use. The experiments were performed on a pool of plasma from seven guinea pigs. His-Fc-Nep (6 μg/ml or 208 μg/ml) or 5 μg/ml recombinant human Neprilysin (R&D systems) with corresponding vehicles (50 mM Tris-HCl, 150 mM NaCl pH 7.5 or 25 mM Tris-HCl, 0.1 M NaCl pH 8.0) were incubated with a pool of plasma in presence or absence of 10 μM phosphoramidon (BIOMOL) at 37° C. for 0 and 4 h. A final concentration of 4.7 mM EDTA was added into the tubes before the amount of Aβ40 and Aβ42 was analysed using a commercial ELISA kit obtained from Biosource (Aβ1-40) or Innogenetics (Aβ1-42).

The subject of experiment [3] is amyloid β 1-40 peptide. The experiment in a line: Degradation of amyloid β 1-40 peptide by Fc-Neprilysin and Neprilysin in buffer. The note with it: 10 μM Phosphoramidone. As for the experimental part: The assay is measuring the remaining amyloid β 1-40 peptide (Bachem) concentration following its incubation in the presence of Neprilysin (R&D Systems) or Fc-Neprilysin with or without Neprilysin inhibitor. 100 μl of reaction mixture containing amyloid β 1-40 peptide (final concentrations, 300, 30 or 3 nM) and/or Neprilysin (2.4 μg/ml), and/or Fc-Neprilysin construct (2.4 μg/ml), and/or Phosphoramidone (10 μM) was incubated in a round bottom 96-well polypropylene plate at 37° C. for 2.5 hours. Following incubation, 10 μl of reaction mixture was transferred into Thermo-Fast© 96-well PCR plate (Abgene, UK) containing 10 μl of Standard Diluent (Gyros AB). Amyloid β 1-40 concentration was determined using Gyrolab Workstation LIF system. Biotinylated anti-amyloid β antibodies (6E10; final concentration 50 μg/ml; Signet) were used as capturing antibodies and polyclonal anti-human amyloid β antibodies (44-348; Biosource) labeled with Alexa Fluor 647 dye (Molecular probes) were used as detection antibodies. […] Amyloid β 1-40 peptide degradation by Neprilysin was calculated as a percentage of Amyloid β 1-40 peptide left after incubation in the presence of Neprilysin compared to the amyloid β 1-40 peptide concentration in the absence of Neprilysin.

Experiment [4] has as its system amyloid β peptide 1-42 (Aβ42). The experiment in a line: Ex-vivo degradation of Aβ42 in guinea pig plasma. The note with it: 10 μM, combined with 208 μg/ml His-Fc-Nep. As for the experimental part: as §1

Take `CC(C)C[C@H](NP(=O)(O)O[C@@H]1O[C@@H](C)[C@H](O)[C@@H](O)[C@H]1O)C(=O)N[C@@H](Cc1c[nH]c2ccccc12)C(=O)O` [Phosphoramidone, reference compound]: the “Aβ40 levels after addition of inhibitor to the enzyme incubation” value in experiment [1] and in experiment [2] was “unaffected” throughout. Moreover, the “Specific Neprilysin activity in the presence of inhibitor” value in experiment [3] is on record as “almost completely abolished”. The “Inhibition of the Aβ42 reduction by phosphoramidon” value in experiment [4] is reported as “not inhibited”.
